{"source": "patent US11911396B2", "about": "“Use of compound in preparation of drug for treating cerebral small vessel disease” (GUANGZHOU CELLPROTEK PHARMACEUTICAL CO., LTD, priority 2017, dated 2024)", "key": {"[1]": {"tested_on": "CD163", "test": "Western blot of CD163 in prefrontal cortex brain tissue, acute hypobaric hypoxia model", "type": "in vivo, cynomolgus monkeys", "settings": "FIGS. 4A and 4B", "source_text": "FIG. 4. Triol enhanced the clearance of free hemoglobin in brain tissue by up-regulating CD163 and Heme Oxygenase-1 (HO-1) protein levels. A. Protein expression of hemoglobin scavenger receptor CD163 and heme oxygenase HO-1 in the brain tissue of the prefrontal cortex of cynomolgus monkeys; B. Statistics of protein relative gray scan values. The gray value was obtained by scanning with Image Lab software, and the relative value was obtained after normalizing with α-Tubulin. NN: Normobaric Normoxia group (N=3); HH: Hypobaric Hypoxia group (N=3); HH+Triol: Hypobaric Hypoxia with Triol administration group (N=3); HH+PROG: Hypobaric Hypoxia with progesterone administration group (N=3). […]\n(§1) 1) Preparation of protein samples (see the instructions of M-PER protein lysate): After the cells had been processed for the specified time, the medium was aspirated and then washed with 4° C. pre-chilled PBS (0.01M pH7.2˜7.3) for 3 times. […] 2) BCA protein quantification (see the instructions of BCA protein quantification kit): corresponding components were added to a 96-well detection plate by the ratio of quantification reagent A solution:B solution:ddH2O:protein=100:2:7.5:5, and albumin standards diluted in gradient concentration were added to draw a standard curve. […] After the reaction, the absorbance of each well at a wavelength of 562 nm was detected using a microplate reader. […]"}, "[2]": {"tested_on": "CD11b in microglia BV2", "test": "Western blot of CD11b in BV2 cells stimulated with hemoglobin and hypoxia, with or without CD163 RNA interference", "type": "cell-based", "settings": "10 μM Triol, 20 μM hemoglobin and 1% hypoxia for 6 hours", "experimental": "(§2) FIG. 7. […] According to the manufacturer's instructions, RNAiMAX was used to transfect CD163 No. 01 and scrambled interference fragment NC respectively to BV2 cells, BV2 cell culture medium was then added with or without 10 μM Triol, and BV2 cells were stimulated with 20 μM hemoglobin and 1% hypoxia for 6 hours, after which protein samples were collected, and the expression of microglial activation markers Iba-1 and CD11b was detected by Western blot.\nas §1, with “times. 150-200 ul of M-PER protein lysate mixed with protease inhibitor (PMSF 100×) was added, which was lysed on ice for 10 minutes to fully lyse the cells.” for “times.”"}, "[3]": {"tested_on": "Iba-1 in microglia BV2", "test": "Western blot of Iba-1 in BV2 cells stimulated with hemoglobin and hypoxia, with or without CD163 RNA interference", "type": "cell-based", "settings": "10 μM Triol, 20 μM hemoglobin and 1% hypoxia for 6 hours", "experimental": "as §2\nas §1, with “times. 150-200 ul of M-PER protein lysate mixed with protease inhibitor (PMSF 100×) was added, which was lysed on ice for 10 minutes to fully lyse the cells.” for “times.”"}}, "data": [{"smiles": "C[C@@]12CCCC1C1C[C@@H](O)[C@@]3(O)C[C@@H](O)CC[C@]3(C)C1CC2", "note": "(stereo partly drawn) [Triol, 5α-androst-3β,5,6β-triol]", "values": [{"measurement": "down-regulation of CD163 expression caused by acute hypobaric hypoxia", "setting": "[1]", "value": "significantly restored"}, {"measurement": "effect on the up-regulation of CD11b in hypoxia and hemoglobin-activated microglia cells", "setting": "[2]; without CD163 interference", "value": "inhibitory effect"}, {"measurement": "inhibitory effect on the up-regulation of CD11b after interfering CD163", "setting": "[2]; CD163 RNA interference, FIG. 7", "value": "cancelled"}, {"measurement": "effect on the up-regulation of Iba-1 in hypoxia and hemoglobin-activated microglia cells", "setting": "[3]; without CD163 interference", "value": "inhibitory effect"}, {"measurement": "inhibitory effect on the up-regulation of Iba-1 after interfering CD163", "setting": "[3]; CD163 RNA interference, FIG. 7", "value": "cancelled"}]}]}
